The results in this text go back to PubChem BioAssay (NCI).

Each structure is given as a SMILES string. Values joined by “and” are separate entries in the source; they are usually repeats but may differ in a detail not shown here. Identical values can stand only once.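 The compound was tested at five concentrations on cells cultured in 96-well plates, with a 48-hour exposure period. Abbreviation: GI50, concentration required for 50% inhibition of growth. TGI denotes the concentration required for complete inhibition of growth.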

Among the test systems are UO-31 renal; SW-620 colon; RXF 393 renal; HT29 colon; HL-60(TB) leukemia; IGROV1 ovarian; M14 melanoma; CAKI-1 renal; SF-268 CNS; OVCAR-4 ovarian.
Common to all, as to assay: NCI-60 cell line screen, 48 h

Regarding `O=C1C=C(Br)c2c(-c3ccccc3)oc3cccc1c23`, the TGI in the assay on UO-31 renal is above 100 µM; with SW-620 colon, above 100 µM; in the assay with RXF 393 renal, above 83.9 µM; with HT29 colon, above 100 µM; with HL-60(TB) leukemia, above 63.2 µM; in the assay with IGROV1 ovarian, above 100 µM. Moreover, the TGI with M14 melanoma was 98.2 µM; with CAKI-1 renal, above 100 µM; in the assay with SF-268 CNS, above 81.6 µM; in the assay with OVCAR-4 ovarian it was above 100 µM.

Turning to `Brc1cccc(C2SCc3nc4ccccc4n32)c1` (stereo not drawn), the TGI with UO-31 renal was 25.7 µM; with SW-620 colon it was above 100 µM; in the assay with RXF 393 renal, 26.4 µM; in the assay with HT29 colon, 52.3 µM; in the assay with HL-60(TB) leukemia, 34.9 µM; with IGROV1 ovarian it was 98.9 µM. Further, the TGI in the assay with M14 melanoma was 53.1 µM; in the assay on CAKI-1 renal, above 100 µM; with SF-268 CNS, above 100 µM; in the assay on OVCAR-4 ovarian it was 63.3 µM.

Take `O=C(N/N=C/c1ccc2c(c1)CCC2)c1ccccc1O`: the TGI was 94.6 µM in the assay on UO-31 renal; above 100 µM with SW-620 colon; 62 µM in the assay with RXF 393 renal; above 100 µM in the assay with HT29 colon; above 100 µM with HL-60(TB) leukemia; 55.9 µM in the assay on IGROV1 ovarian. In addition, the TGI was above 100 µM in the assay on M14 melanoma, 74.5 µM with CAKI-1 renal, 74.7 µM with SF-268 CNS and 60.2 µM with OVCAR-4 ovarian.

Consider `CC(=O)NC1=C(OS(=O)(=O)c2ccc(C)cc2)CN(C)C1=O`, for which the TGI in the assay on UO-31 renal is 14.2 µM; in the assay on SW-620 colon, above 37.3 µM; with RXF 393 renal, 13.3 µM; with HT29 colon, 20 µM; in the assay with HL-60(TB) leukemia, 7.09 µM; in the assay with IGROV1 ovarian, 12.1 µM. The TGI with M14 melanoma was determined as 20 µM; with CAKI-1 renal, 14 µM; in the assay on SF-268 CNS it was 45 µM; with OVCAR-4 ovarian, 20.9 µM.

As for `O=C(C1CCCCC1)[C@@H]1[C@]2(C(=O)NC3CCCCC32)[C@@H]2CCCN2[C@@]12C(=O)NC1CCC(Cl)CC12` (stereo partly drawn), the GI50 with UO-31 renal is 54.1 µM; in the assay with SW-620 colon, 98.6 µM; in the assay on RXF 393 renal it was 113 µM; with HT29 colon, 64.4 µM; in the assay with HL-60(TB) leukemia it was 35.3 µM; in the assay on IGROV1 ovarian, 53.2 µM. Besides, the GI50 with M14 melanoma was 116 µM; with CAKI-1 renal, 80.8 µM; in the assay on SF-268 CNS it was 119 µM; in the assay on OVCAR-4 ovarian, 64.4 µM. Moreover, the TGI in the assay with UO-31 renal worked out at 226 µM; in the assay with SW-620 colon, 238 µM; in the assay on RXF 393 renal it was 301 µM; in the assay on HT29 colon, 199 µM; with HL-60(TB) leukemia, 176 µM; in the assay on IGROV1 ovarian it was 202 µM. Moreover, the TGI with M14 melanoma amounted to 253 µM; with CAKI-1 renal it was 225 µM; with SF-268 CNS, 288 µM; in the assay with OVCAR-4 ovarian, 218 µM.

Regarding `O=C1C(=O)c2c(nc3ccc(Cl)cn23)-c2ccccc21`, the GI50 in the assay with UO-31 renal was 0.306 µM; with SW-620 colon, 0.292 µM; in the assay with RXF 393 renal it was 0.564 µM; in the assay with HT29 colon it was 3.26 µM; in the assay on HL-60(TB) leukemia, 0.235 µM; with IGROV1 ovarian it was 0.646 µM. For the same compound, the GI50 with M14 melanoma was 1.3 µM; in the assay on CAKI-1 renal it was 0.477 µM; in the assay with SF-268 CNS, 0.307 µM; with OVCAR-4 ovarian it was 0.207 µM. In addition, the TGI is 3.47 µM with UO-31 renal; 1.03 µM in the assay on SW-620 colon; 5.61 µM in the assay on RXF 393 renal; 19.8 µM with HT29 colon; 3.05 µM with M14 melanoma; 1.04 µM in the assay with CAKI-1 renal. Also, the results for the TGI in the assay on SF-268 CNS and in the assay on OVCAR-4 ovarian were 1.18 µM and 0.463 µM, respectively.

On to `O[C@H]1CO[C@H]2[C@@H]1OC[C@@H]2Oc1ccc(Nc2ccnc(Nc3ccc(O[C@H]4CO[C@H]5[C@@H]4OC[C@@H]5O)c(Cl)c3)n2)cc1Cl`, for which the GI50 is 1.55 µM with UO-31 renal; 2.36 µM in the assay with SW-620 colon; 1.5 µM with RXF 393 renal; 2.48 µM with HT29 colon; 1.57 µM in the assay with HL-60(TB) leukemia; 0.757 µM in the assay with IGROV1 ovarian. The GI50 was 1.48 µM in the assay with M14 melanoma, 1.79 µM in the assay with CAKI-1 renal, 1.63 µM in the assay with SF-268 CNS and 1.54 µM in the assay with OVCAR-4 ovarian. The TGI was determined as 3.06 µM in the assay with UO-31 renal; 6.86 µM in the assay with SW-620 colon; 3.8 µM in the assay with RXF 393 renal; 15.4 µM in the assay with HT29 colon; 4.7 µM in the assay on HL-60(TB) leukemia; 6.08 µM in the assay on IGROV1 ovarian. Further, the TGI was determined as 4.18 µM in the assay with M14 melanoma, 10.2 µM in the assay with CAKI-1 renal, 4.98 µM in the assay on SF-268 CNS and 5.24 µM in the assay with OVCAR-4 ovarian.

In the case of `O=C(O)C/C=C/CC(=O)O`, the TGI in the assay with UO-31 renal, in the assay with SW-620 colon, in the assay on RXF 393 renal, in the assay with HT29 colon, with HL-60(TB) leukemia and in the assay on IGROV1 ovarian was above 100 µM each time. Besides, the TGI in the assay with M14 melanoma, in the assay on CAKI-1 renal, in the assay with SF-268 CNS and in the assay on OVCAR-4 ovarian was above 100 µM in each case.

On to `Cc1ccc(C(=O)Nc2cccc(C(F)(F)F)c2)cc1Nc1nc(-c2cccnc2)nc2c1cnn2C`, for which the GI50 with UO-31 renal is 1.08 µM and 0.477 µM; with SW-620 colon, 1.74 µM and 1.51 µM; in the assay on RXF 393 renal, 1.47 µM and 1.45 µM; with HT29 colon it was 1.48 µM and 0.488 µM; with HL-60(TB) leukemia it was 0.423 µM and 0.273 µM; with IGROV1 ovarian, 1.74 µM and 0.851 µM. For the same compound, the GI50 is 1.05 µM and 0.442 µM in the assay on M14 melanoma; 2.44 µM and 1.33 µM with CAKI-1 renal; 4.01 µM and 2.91 µM in the assay with SF-268 CNS; 4.56 µM and 2.59 µM in the assay with OVCAR-4 ovarian. Further, the TGI in the assay on UO-31 renal is 8.99 µM and 5.11 µM; with SW-620 colon, 13.4 µM and > 10 µM; with RXF 393 renal it was 4.24 µM and 3.66 µM; in the assay on HT29 colon it was 35.1 µM and 4.49 µM; with HL-60(TB) leukemia it was 3.59 µM and 3.57 µM; in the assay with IGROV1 ovarian, 8.71 µM and 5 µM. For the same compound, the TGI in the assay with M14 melanoma is 3.66 µM and 3.43 µM; in the assay on CAKI-1 renal it was 11.8 µM and 3.35 µM; in the assay with SF-268 CNS it was 21.9 µM and > 10 µM; in the assay with OVCAR-4 ovarian, 30.3 µM and > 10 µM.

Consider `CC1=C(CCC(C)N(C)Cc2ccc(OCCCN3CCCC3)cc2)C(C)(C)CCC1` (stereo not drawn), for which the GI50 in the assay with UO-31 renal was 3.2 µM; in the assay with SW-620 colon, 3.01 µM; with RXF 393 renal, 2.59 µM; in the assay with HT29 colon, 0.764 µM; with HL-60(TB) leukemia, 3.87 µM; with IGROV1 ovarian, 4.03 µM. For the same compound, the GI50 in the assay with M14 melanoma is 1.75 µM; in the assay with CAKI-1 renal, 11.3 µM; in the assay with SF-268 CNS, 4.07 µM; with OVCAR-4 ovarian it was 7.76 µM. Besides, the TGI amounted to 13.3 µM in the assay with UO-31 renal; 10.8 µM in the assay with SW-620 colon; 10.2 µM in the assay on RXF 393 renal; 6.94 µM with HT29 colon; 20.4 µM in the assay on HL-60(TB) leukemia; 16.6 µM in the assay with IGROV1 ovarian. Also, the TGI came to 3.7 µM in the assay with M14 melanoma, 24.3 µM with CAKI-1 renal, 17.5 µM in the assay with SF-268 CNS and 21.4 µM in the assay with OVCAR-4 ovarian.
